Measurements taken from patent US9475759B2, “Tigecycline crystalline hydrate and preparation method therefor and use thereof” (priority 2011, dated 2016).

experiment: Test for hygroscopicity (hygroscopic weight gain); assay type: physicochemical; settings: 25° C., relative humidity about 70%, about 5 g sample, sampling time 12 hours
Procedure: The tigecycline crystalline hydrates according to the invention can be stable for storage. A hygroscopicity test is conducted directed to a tigecycline hydrate sample and a tigecycline anhydride sample: about 5 g of the tigecycline anhydride and 5 g of the hydrate of the invention are taken, and they are placed in a dry and weight-constant surface vessel and precisely weighted. […] On the conditions of RH 75% and 30° C., the tigecycline crystalline hydrate is sealed in a vial for conducting a six-month acceleration stability test. According to the testing conditions of HPLC process of the tigecycline in relevant literatures: C18 (250 mm×4.6 mm, 5 μm) acetonitrile:phosphate buffer (1.29 g of citric acid and 2.76 g of anhydrous disodium hydrogen phosphate are dissolved in water and diluted to 1000 ml) (80:20) as the mobile phase; detection wavelength is 248 nm; the column temperature is room temperature; and the flowing rate is 1 ml/min. Under the conditions, the tigecycline contents and related substances are determined.
The tigecycline hydrates of the present invention may be stable for storage. Samples of tigecycline hydrates and anhydrides and amorphous tigecycline are used to conduct the test for hygroscopicity: respectively, about 5 g tigecycline anhydrides (obtained by drying tigecycline.0.5H2O hydrate prepared according to Example 1), about 5 g amorphous tigecycline (prepared by referring to the process as described in the reference document CN101367747A) and about 5 g the hydrates of the present invention are placed in a dry and constant weight watch glass, and the system is precisely weighed.

First: CN(C)c1cc(NC(=O)CNC(C)(C)C)c(O)c2c1C[C@H]1C[C@H]3[C@H](N(C)C)C(O)=C(C(N)=O)C(=O)[C@@]3(O)C(O)=C1C2=O [Amorphous tigecyline, tigecycline]
Second: CN(C)c1cc(NC(=O)CNC(C)(C)C)c(O)c2c1CC1CC3C(N(C)C)C(O)=C(C(N)=O)C(=O)C3(O)C(O)=C1C2=O.O.O (stereo not shown) [Tigecycline•2 H2O hydrate, Tigecycline.2H2O Hydrate]
The “As compared to the sample time of 0 h, weight gains %” value of the first is higher: 1.3% for the first, 0.1% for the second.

First: CN(C)c1cc(NC(=O)CNC(C)(C)C)c(O)c2c1C[C@H]1C[C@H]3[C@H](N(C)C)C(O)=C(C(N)=O)C(=O)[C@@]3(O)C(O)=C1C2=O [Tigecycline anhydride]
Second: CN(C)c1cc(NC(=O)CNC(C)(C)C)c(O)c2c1C[C@H]1C[C@H]3[C@H](N(C)C)C(O)=C(C(N)=O)C(=O)[C@@]3(O)C(O)=C1C2=O.CN(C)c1cc(NC(=O)CNC(C)(C)C)c(O)c2c1C[C@H]1C[C@H]3[C@H](N(C)C)C(O)=C(C(N)=O)C(=O)[C@@]3(O)C(O)=C1C2=O.O [Tigecycline•0.5 H2O hydrate, Tigecycline.0.5H2O Hydrate]
The “As compared to the sample time of 0 h, weight gains %” value of the first is higher: 1.4% for the first, 0.2% for the second.
